Among the test systems are OVCAR-8 ovarian; HT29 colon; KM12 colon; SNB-78 CNS; CAKI-1 renal; UACC-257 melanoma; KM20L2 colon; HCC-2998 colon; ACHN renal; TK-10 renal.
Common to all, as to assay: growth of human tumour cells (NCI), 48 h

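Exposure lasted 48 hours, with cells grown in 96-well plates and compounds tested at five concentrations. At the GI50, growth is halved. TGI denotes the concentration required for complete inhibition of growth.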

In the case of `CCOC(=O)CNC(=O)NC12CC3CC(CC(C3)C1)C2`, the TGI is over 550 µM with OVCAR-8 ovarian; over 550 µM in the assay with HT29 colon; over 449 µM in the assay with KM12 colon; over 520 µM in the assay on SNB-78 CNS; over 487 µM in the assay with CAKI-1 renal; 477 µM with UACC-257 melanoma. For the same compound, the TGI in the assay on KM20L2 colon was over 550 µM; with HCC-2998 colon it was 319 µM.

For `CCCN(CCC)c1c([N+](=O)[O-])cc(C(=O)N(CC)CC)cc1[N+](=O)[O-]`, the TGI with OVCAR-8 ovarian was 69 µM; in the assay on HT29 colon, over 100 µM; with SNB-78 CNS, over 100 µM; in the assay with CAKI-1 renal, over 100 µM; in the assay with UACC-257 melanoma, 43.3 µM; with ACHN renal it was over 100 µM. The TGI with TK-10 renal was 76.8 µM; with KM20L2 colon, 53.1 µM; in the assay on HCC-2998 colon, over 100 µM.

`COc1cc(C2c3cc4c(cc3[C@@H](Nc3ccccc3)C3COC(=O)[C@H]23)OCO4)cc(OC)c1O` (stereo partly drawn): the TGI is over 19.7 µM with OVCAR-8 ovarian; 3.64 µM in the assay with HT29 colon; 4.69 µM in the assay on KM12 colon; over 91 µM in the assay on SNB-78 CNS; 1.68 µM with CAKI-1 renal; 4.27 µM in the assay with UACC-257 melanoma. The TGI in the assay with KM20L2 colon was over 23.3 µM; with HCC-2998 colon, 3.35 µM.

As to `CN1Cc2c(nc(-c3ccccc3)c[n+]2[O-])N(C)C1`, the TGI in the assay with OVCAR-8 ovarian, with HT29 colon, in the assay on KM12 colon, with SNB-78 CNS, in the assay with CAKI-1 renal and with UACC-257 melanoma was over 100 µM throughout. Besides, the TGI in the assay on ACHN renal, with TK-10 renal, in the assay with KM20L2 colon and with HCC-2998 colon was over 100 µM in each case.

Regarding `O=C(NCCCl)O/N=C/c1cccnc1`, the TGI in the assay on OVCAR-8 ovarian, in the assay on HT29 colon, with KM12 colon, in the assay on SNB-78 CNS, with CAKI-1 renal and with UACC-257 melanoma was over 100 µM throughout. In addition, the TGI in the assay on KM20L2 colon and in the assay with HCC-2998 colon was over 100 µM in each case. Moreover, the GI50 in the assay with SNB-78 CNS and in the assay with KM20L2 colon was over 100 µM each time.

As to `O=C1NC(O)CCN1C1OC(CO)C(O)C1O` (stereo not drawn), the TGI in the assay on OVCAR-8 ovarian, with HT29 colon, with KM12 colon, in the assay with SNB-78 CNS, with CAKI-1 renal and in the assay on UACC-257 melanoma was over 250 µM throughout. Also, the TGI was over 127 µM with KM20L2 colon and over 250 µM in the assay with HCC-2998 colon.

Values taken from PubChem BioAssay (NCI).
